Assays:
Assay in all cases: scanMAX KINOMEscan (Eurofins)
Type in all cases: binding
ACVR2B = ACVR2B (Homo sapiens, UniProt Q13705); details: 1000 nM, read-out: Percent Control
From the text: (§1) Supplement cb5c00097_si_002.xlsx, sheet "Table S6 (Eurofins Selectivity)" | column: Percent Control

ALK = ALK (Homo sapiens, UniProt Q9UM73); details: read-out: Percent Control
From the text: as §1

CHEK1 = CHEK1 (Homo sapiens, UniProt O14757); details: read-out: Percent Control
From the text: as §1

CSNK1G1 = CSNK1G1 (Homo sapiens, UniProt Q9HCP0); details: 1000 nM, read-out: Percent Control
From the text: as §1

DCAMKL2 = DCAMKL2 (Homo sapiens, UniProt Q8N568); details: 1000 nM, read-out: Percent Control
From the text: as §1

DCAMKL3 = DCAMKL3 (Homo sapiens, UniProt Q9C098); details: read-out: Percent Control
From the text: as §1

DRAK2 = DRAK2 (Homo sapiens, UniProt O94768); details: 1000 nM, read-out: Percent Control
From the text: as §1

DYRK2 = DYRK2 (Homo sapiens, UniProt Q92630); details: read-out: Percent Control
From the text: as §1

FRK = FRK (Homo sapiens, UniProt P42685); details: 1000 nM, read-out: Percent Control
From the text: as §1

GRK4 = GRK4 (Homo sapiens, UniProt P32298); details: 1000 nM, read-out: Percent Control
From the text: as §1

IRAK1 = IRAK1 (Homo sapiens, UniProt P51617); details: read-out: Percent Control
From the text: as §1

MAK = MAK (Homo sapiens, UniProt P20794); details: compound concentration 100 nM; Entrez MAK; read-out: Percent Control
From the text: as §1

MAP3K15 = MAP3K15 (Homo sapiens, UniProt Q6ZN16); details: compound concentration 100 nM; Entrez MAP3K15; read-out: Percent Control
From the text: as §1

MAP3K3 = MAP3K3 (Homo sapiens, UniProt Q99759); details: 1000 nM, read-out: Percent Control
From the text: as §1

MAP4K3 = MAP4K3 (Homo sapiens, UniProt Q8IVH8); details: 1000 nM, read-out: Percent Control
From the text: as §1

MAPKAPK2 = MAPKAPK2 (Homo sapiens, UniProt P49137); details: 1000 nM, read-out: Percent Control
From the text: as §1

MEK5 = MEK5 (Homo sapiens, UniProt Q13163); details: 1000 nM, read-out: Percent Control
From the text: as §1

MERTK = MERTK (Homo sapiens, UniProt Q12866); details: 1000 nM, read-out: Percent Control
From the text: as §1

MKNK1 = MKNK1 (Homo sapiens, UniProt Q9BUB5); details: 1000 nM, read-out: Percent Control
From the text: as §1

MST3 = MST3 (Homo sapiens, UniProt Q9Y6E0); details: 1000 nM, read-out: Percent Control
From the text: as §1

NDR1 = NDR1 (Homo sapiens, UniProt Q15208); details: 1000 nM, read-out: Percent Control
From the text: as §1

NEK6 = NEK6 (Homo sapiens, UniProt Q9HC98); details: compound concentration 100 nM; Entrez NEK6; read-out: Percent Control
From the text: as §1

PAK7 = PAK7 (Homo sapiens, UniProt Q9P286); details: 1000 nM, read-out: Percent Control
From the text: as §1

PIP5K2B = PIP5K2B (Homo sapiens, UniProt P78356); details: 1000 nM, read-out: Percent Control
From the text: as §1

PKN1 = PKN1 (Homo sapiens, UniProt Q16512); details: read-out: Percent Control
From the text: as §1

PLK2 = PLK2 (Homo sapiens, UniProt Q9NYY3); details: compound concentration 100 nM; Entrez PLK2; read-out: Percent Control
From the text: as §1

PLK3 = PLK3 (Homo sapiens, UniProt Q9H4B4); details: compound concentration 100 nM; Entrez PLK3; read-out: Percent Control
From the text: as §1

PRP4 = PRP4 (Homo sapiens, UniProt Q13523); details: compound concentration 100 nM; Entrez PRPF4B; read-out: Percent Control
From the text: as §1

RIOK2 = RIOK2 (Homo sapiens, UniProt Q9BVS4); details: compound concentration 100 nM; Entrez RIOK2; read-out: Percent Control
From the text: as §1

RIPK5 = RIPK5 (Homo sapiens, UniProt Q6XUX3); details: compound concentration 100 nM; Entrez DSTYK; read-out: Percent Control
From the text: as §1

SRMS = SRMS (Homo sapiens, UniProt Q9H3Y6); details: compound concentration 100 nM; Entrez SRMS; read-out: Percent Control
From the text: as §1

STK36 = STK36 (Homo sapiens, UniProt Q9NRP7); details: 1000 nM, read-out: Percent Control
From the text: as §1

TESK1 = TESK1 (Homo sapiens, UniProt Q15569); details: 1000 nM, read-out: Percent Control
From the text: as §1

TGFBR1 = TGFBR1 (Homo sapiens, UniProt P36897); details: compound concentration 100 nM; Entrez TGFBR1; read-out: Percent Control
From the text: as §1

TRKA = TRKA (Homo sapiens, UniProt P04629); details: 1000 nM, read-out: Percent Control
From the text: as §1

WNK1 = WNK1 (Homo sapiens, UniProt Q9H4A3); details: compound concentration 100 nM; Entrez WNK1; read-out: Percent Control
From the text: as §1

Chain of DCAMKL3 (Q9C098 whole entry): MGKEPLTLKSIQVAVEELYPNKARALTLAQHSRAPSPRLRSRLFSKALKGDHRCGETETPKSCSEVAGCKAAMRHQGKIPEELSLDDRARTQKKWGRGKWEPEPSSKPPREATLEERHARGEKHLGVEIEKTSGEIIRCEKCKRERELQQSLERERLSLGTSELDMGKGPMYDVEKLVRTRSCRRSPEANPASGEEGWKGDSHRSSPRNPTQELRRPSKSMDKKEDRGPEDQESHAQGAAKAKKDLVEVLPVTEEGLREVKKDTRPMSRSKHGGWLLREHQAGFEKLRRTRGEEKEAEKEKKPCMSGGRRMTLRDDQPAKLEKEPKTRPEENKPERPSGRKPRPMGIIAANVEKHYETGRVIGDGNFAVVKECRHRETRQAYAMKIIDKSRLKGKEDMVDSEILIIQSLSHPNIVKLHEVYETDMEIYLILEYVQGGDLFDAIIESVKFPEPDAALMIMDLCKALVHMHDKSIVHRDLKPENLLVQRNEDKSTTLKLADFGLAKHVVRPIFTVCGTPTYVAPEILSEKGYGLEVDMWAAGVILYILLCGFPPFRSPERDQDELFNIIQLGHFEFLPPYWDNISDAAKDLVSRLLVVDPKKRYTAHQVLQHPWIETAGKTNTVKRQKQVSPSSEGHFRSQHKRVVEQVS
Chain of IRAK1 (P51617 whole entry): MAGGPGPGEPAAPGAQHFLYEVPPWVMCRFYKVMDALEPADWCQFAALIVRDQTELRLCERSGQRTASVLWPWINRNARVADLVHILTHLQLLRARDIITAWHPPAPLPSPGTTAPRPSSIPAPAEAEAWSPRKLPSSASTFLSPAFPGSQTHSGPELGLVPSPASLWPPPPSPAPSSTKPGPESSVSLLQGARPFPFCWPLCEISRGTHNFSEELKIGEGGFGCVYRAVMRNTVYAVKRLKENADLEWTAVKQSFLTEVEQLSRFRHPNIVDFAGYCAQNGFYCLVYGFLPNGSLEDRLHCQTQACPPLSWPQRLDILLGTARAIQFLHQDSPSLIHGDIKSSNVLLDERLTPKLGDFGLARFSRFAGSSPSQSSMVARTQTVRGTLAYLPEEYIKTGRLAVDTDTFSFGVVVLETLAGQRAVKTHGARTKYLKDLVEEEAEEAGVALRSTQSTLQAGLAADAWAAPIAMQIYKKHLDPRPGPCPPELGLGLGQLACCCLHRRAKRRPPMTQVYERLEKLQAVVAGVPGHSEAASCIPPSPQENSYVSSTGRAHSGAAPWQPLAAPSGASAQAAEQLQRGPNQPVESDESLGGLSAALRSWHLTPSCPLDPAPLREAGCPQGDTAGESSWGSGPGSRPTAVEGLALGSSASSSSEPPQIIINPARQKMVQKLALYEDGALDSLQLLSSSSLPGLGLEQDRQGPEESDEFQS
Chain of PKN1 (Q16512 whole entry): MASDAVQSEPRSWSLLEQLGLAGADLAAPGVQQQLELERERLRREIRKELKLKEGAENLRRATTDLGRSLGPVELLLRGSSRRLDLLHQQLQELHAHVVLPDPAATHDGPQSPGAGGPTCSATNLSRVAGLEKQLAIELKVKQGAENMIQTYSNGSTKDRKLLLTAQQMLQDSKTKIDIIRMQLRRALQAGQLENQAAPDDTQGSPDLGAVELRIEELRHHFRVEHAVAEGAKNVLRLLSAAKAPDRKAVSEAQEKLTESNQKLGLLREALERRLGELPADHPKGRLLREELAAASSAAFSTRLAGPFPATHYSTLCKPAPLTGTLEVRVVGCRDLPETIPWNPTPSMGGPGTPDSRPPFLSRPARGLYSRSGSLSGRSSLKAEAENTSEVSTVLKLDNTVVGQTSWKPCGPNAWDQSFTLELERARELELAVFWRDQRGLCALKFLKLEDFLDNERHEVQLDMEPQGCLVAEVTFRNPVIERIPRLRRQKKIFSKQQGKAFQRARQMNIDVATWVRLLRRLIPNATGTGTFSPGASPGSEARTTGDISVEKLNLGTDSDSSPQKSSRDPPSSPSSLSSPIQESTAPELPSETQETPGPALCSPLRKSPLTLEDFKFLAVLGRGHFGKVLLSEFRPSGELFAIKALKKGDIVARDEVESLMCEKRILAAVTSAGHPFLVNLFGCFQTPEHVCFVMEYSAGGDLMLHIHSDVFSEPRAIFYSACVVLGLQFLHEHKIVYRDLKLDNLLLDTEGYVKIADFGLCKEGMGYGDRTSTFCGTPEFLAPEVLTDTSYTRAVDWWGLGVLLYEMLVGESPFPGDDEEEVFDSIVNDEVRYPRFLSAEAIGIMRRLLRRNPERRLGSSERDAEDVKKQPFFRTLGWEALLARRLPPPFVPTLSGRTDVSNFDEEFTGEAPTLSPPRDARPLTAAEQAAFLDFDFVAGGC
Chain of CHEK1 (O14757 whole entry): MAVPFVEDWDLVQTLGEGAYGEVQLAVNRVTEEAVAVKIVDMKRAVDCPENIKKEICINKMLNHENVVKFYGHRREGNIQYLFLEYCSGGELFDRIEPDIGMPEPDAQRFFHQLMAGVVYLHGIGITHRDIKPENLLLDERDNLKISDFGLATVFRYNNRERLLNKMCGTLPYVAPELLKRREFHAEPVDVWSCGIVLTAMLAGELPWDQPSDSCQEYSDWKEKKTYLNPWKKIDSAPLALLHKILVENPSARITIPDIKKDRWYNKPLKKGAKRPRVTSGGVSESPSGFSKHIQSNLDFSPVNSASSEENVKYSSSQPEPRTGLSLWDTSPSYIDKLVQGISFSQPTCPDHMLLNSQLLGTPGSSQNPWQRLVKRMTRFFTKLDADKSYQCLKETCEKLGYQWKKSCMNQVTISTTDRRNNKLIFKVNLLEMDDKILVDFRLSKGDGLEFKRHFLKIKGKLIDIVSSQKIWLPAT
Chain of DYRK2 (Q92630 whole entry): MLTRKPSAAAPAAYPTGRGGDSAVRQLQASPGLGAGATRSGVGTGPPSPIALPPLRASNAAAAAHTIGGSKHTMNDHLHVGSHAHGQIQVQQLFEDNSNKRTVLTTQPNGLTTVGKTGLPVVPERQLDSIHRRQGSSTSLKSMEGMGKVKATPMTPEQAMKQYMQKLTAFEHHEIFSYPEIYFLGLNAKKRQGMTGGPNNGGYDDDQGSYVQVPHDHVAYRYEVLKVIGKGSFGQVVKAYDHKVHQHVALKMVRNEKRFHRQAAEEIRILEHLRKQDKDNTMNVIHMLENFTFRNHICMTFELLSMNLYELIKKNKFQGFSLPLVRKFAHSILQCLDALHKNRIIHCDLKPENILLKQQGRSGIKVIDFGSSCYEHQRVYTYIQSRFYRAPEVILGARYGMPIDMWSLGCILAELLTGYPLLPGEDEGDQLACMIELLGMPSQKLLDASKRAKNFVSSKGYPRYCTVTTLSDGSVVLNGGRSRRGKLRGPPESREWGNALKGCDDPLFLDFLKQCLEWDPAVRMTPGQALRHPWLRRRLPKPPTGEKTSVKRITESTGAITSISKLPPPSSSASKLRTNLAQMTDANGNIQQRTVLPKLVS
Chain of ALK (Q9UM73 19-1620): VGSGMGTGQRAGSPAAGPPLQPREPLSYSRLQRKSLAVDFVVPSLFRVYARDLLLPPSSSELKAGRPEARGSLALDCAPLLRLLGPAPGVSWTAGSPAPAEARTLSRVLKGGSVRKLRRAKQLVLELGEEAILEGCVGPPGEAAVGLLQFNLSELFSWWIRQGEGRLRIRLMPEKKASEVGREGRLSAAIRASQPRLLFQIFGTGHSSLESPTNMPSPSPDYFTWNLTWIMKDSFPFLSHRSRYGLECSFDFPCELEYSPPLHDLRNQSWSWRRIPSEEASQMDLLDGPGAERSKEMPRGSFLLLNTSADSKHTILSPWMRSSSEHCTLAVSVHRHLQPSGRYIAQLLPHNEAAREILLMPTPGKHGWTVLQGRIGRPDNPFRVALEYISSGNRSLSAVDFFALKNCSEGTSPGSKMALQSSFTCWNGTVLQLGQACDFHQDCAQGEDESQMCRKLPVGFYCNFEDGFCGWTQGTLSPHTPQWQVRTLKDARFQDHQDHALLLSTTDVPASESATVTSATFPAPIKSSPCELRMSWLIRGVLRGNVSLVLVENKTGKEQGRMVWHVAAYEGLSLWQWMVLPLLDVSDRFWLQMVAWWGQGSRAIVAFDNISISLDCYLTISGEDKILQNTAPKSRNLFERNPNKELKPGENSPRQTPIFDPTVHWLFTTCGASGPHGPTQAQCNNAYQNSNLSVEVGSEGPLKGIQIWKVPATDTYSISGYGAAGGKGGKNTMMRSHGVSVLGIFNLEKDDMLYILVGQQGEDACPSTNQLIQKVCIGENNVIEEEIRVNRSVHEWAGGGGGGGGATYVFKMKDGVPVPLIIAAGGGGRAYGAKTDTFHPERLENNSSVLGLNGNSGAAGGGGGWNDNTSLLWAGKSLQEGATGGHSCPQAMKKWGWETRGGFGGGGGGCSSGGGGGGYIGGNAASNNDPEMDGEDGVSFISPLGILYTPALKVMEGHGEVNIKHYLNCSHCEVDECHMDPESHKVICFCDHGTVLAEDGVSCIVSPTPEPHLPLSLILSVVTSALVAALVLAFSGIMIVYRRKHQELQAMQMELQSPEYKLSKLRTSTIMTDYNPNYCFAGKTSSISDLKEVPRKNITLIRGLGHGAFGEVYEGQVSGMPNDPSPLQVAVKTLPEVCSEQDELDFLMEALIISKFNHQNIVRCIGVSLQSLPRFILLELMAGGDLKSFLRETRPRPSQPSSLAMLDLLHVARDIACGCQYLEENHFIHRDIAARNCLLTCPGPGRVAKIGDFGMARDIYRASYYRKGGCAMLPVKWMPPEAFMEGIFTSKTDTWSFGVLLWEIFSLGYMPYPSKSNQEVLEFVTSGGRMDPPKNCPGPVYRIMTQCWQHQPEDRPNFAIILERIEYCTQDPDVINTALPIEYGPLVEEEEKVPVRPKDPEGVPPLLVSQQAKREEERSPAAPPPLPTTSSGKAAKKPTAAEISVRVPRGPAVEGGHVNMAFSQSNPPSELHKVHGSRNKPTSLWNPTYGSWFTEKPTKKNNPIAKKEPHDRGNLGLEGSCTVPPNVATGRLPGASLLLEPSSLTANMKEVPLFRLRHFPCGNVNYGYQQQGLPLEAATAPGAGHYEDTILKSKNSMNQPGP

CN1C(=O)[C@@H](N2CCc3c(nn(Cc4ccccc4)c3C(N)=O)C2=O)COc2cc(Cl)ccc21 [Compound 10, (S)-2-benzyl-6-(8-chloro-5-methyl-4-oxo-2,3,4,5-tetrahydrobenzo[b][1,4]oxazepin-3-yl)-7-oxo-4,5,6,7-tetrahydro-2H-pyrazolo[3,4-c]pyridine-3-carboxamide]
remaining binding at 1 µM (ACVR2B): 94% | remaining binding at 1 µM (ALK; 1000 nM): 100% | remaining binding at 0.1 µM (ALK; compound concentration 100 nM, Entrez ALK): 84% | remaining binding at 1 µM (CHEK1; 1000 nM): 100% | remaining binding at 0.1 µM (CHEK1; compound concentration 100 nM, Entrez CHEK1): 86% | remaining binding at 1 µM (CSNK1G1): 91% | remaining binding at 1 µM (DCAMKL2): 83% | remaining binding at 1 µM (DCAMKL3; 1000 nM): 100% | remaining binding at 0.1 µM (DCAMKL3; compound concentration 100 nM, Entrez DCLK3): 75% | remaining binding at 1 µM (DRAK2): 82% | remaining binding at 1 µM (DYRK2; 1000 nM): 100% | remaining binding at 0.1 µM (DYRK2; compound concentration 100 nM, Entrez DYRK2): 100% | remaining binding at 1 µM (FRK): 81% | remaining binding at 1 µM (GRK4): 75% | remaining binding at 1 µM (IRAK1; 1000 nM): 100% | remaining binding at 0.1 µM (IRAK1; compound concentration 100 nM, Entrez IRAK1): 100% | remaining binding at 0.1 µM (MAK): 94% | remaining binding at 0.1 µM (MAP3K15): 71% | remaining binding at 1 µM (MAP3K3): 94% | remaining binding at 1 µM (MAP4K3): 92% | remaining binding at 1 µM (MAPKAPK2): 64% | remaining binding at 1 µM (MEK5): 82% | remaining binding at 1 µM (MERTK): 98% | remaining binding at 1 µM (MKNK1): 77% | remaining binding at 1 µM (MST3): 96% | remaining binding at 1 µM (NDR1): 97% | remaining binding at 0.1 µM (NEK6): 78% | remaining binding at 1 µM (PAK7): 91% | remaining binding at 1 µM (PIP5K2B): 73% | remaining binding at 1 µM (PKN1; 1000 nM): 98% | remaining binding at 0.1 µM (PKN1; compound concentration 100 nM, Entrez PKN1): 86% | remaining binding at 0.1 µM (PLK2): 100% | remaining binding at 0.1 µM (PLK3): 86% | remaining binding at 0.1 µM (PRP4): 67% | remaining binding at 0.1 µM (RIOK2): 94% | remaining binding at 0.1 µM (RIPK5): 91% | remaining binding at 0.1 µM (SRMS): 90% | remaining binding at 1 µM (STK36): 80% | remaining binding at 1 µM (TESK1): 79% | remaining binding at 0.1 µM (TGFBR1): 100% | remaining binding at 1 µM (TRKA): 95% | remaining binding at 0.1 µM (WNK1): 92%

Reference: PMC12090182, “Repurposing of the RIPK1-Selective Benzo[1,4]oxazepin-4-one Scaffold for the Development of a Type III LIMK1/2 Inhibitor” (ACS Chemical Biology, 2025)
